Measured values as given in patent publication US20030095979A1, “Pharmaceutical preparations comprising modified peptides” (Cistem Biotechnologies GMBH, priority 2001, published 2003).

Experiments:
Set-up in all cases: species or system mice (C57BL/6)
[1] = tested on: specific IFN-γ-producing T cells; test: Example 2: mice vaccinated subcutaneously in the footpad 3 times, lymph node cells and splenocytes activated ex vivo with SIINFEKL, IFN-γ ELISpot assay; conditions: in combination with 100 μg poly-L-arginine; 100 μg peptide s.c. footpad days 0, 14, 28; one week after 3rd vaccination
Description: Groups of 4 mice (C57BL/6, female, 6 weeks of age, II-2^b) were injected subcutaneously in the footpad 3 times (days 0, 14, 28) as follows (dose 100 ug of peptide, molarity adapted; +100 μg poly-L-arginine per mouse):
Groups of 4 mice were vaccinated subcutaneously in the footpad 3 times as indicated. One week after the 3rd vaccination, popliteal lymph nodes and spleens were removed and lymph node cells and splenocytes were activated ex vivo with peptide SIINFEKL (“245”) to determine IFN-y-producing specific cells (ELISpot assay).

[2] = tested on: SIINFEKL specific IFN-γ-producing T cells; test: Example 1: mice vaccinated subcutaneously in the flank 3 times, splenocytes activated ex vivo with SIINFEKL, IFN-γ ELISpot assay; conditions: for peptide specific T cells induced: without adding poly-L-arginine, 100 μg peptide s.c. flank days 0, 21, 28, spleen one week after third vaccination
Description: Groups of 4 mice (C75BL/6, femal, 8 weeks of age, H-2^b were injected subcutaneoulsy in the flank 3 times (days 0, 21 and 28) as follows (dose 100 μg of peptide, molarity adapted; +/−100 μg poly-L-arginine per mouse):
One week after the third vaccination spleens were removed and the splenocytes were activated ex vivo with peptide SIINFEKL (“245”) to determine IFN-y-producing specific cells (ELISpot assay).

[3] = tested on: SIINFEKL-specific IFN-γ-producing T cells; test: Example 3: mice vaccinated subcutaneously in the hind footpads, spleen cells restimulated ex vivo, IFN-γ ELISpot assay; conditions: in combination with 100 μg poly-L-arginine; 100 μg peptide s.c. hind footpads; spleen 7 days after vaccination
Description: Groups of 4 mice (C57BL/6, female, 8 weeks of age, H-2^b) were injected subcutaneously into the hind footpads as follows (dose 100 μg of peptide, molarity adapted; +100 μg poly-L-arginine per mouse):
Groups of 4 mice were vaccinated subcutaneously in the hind footpads as indicated. 7 days after the vaccination single cell suspensions of spleens were prepared and cells were restimulated ex vivo to detect IFN-γ-producing cells via ELISpot assay.

Row | Sequence | peptide specific T cells induced [2] | induction of SIINFEKL-specific IFN-γ-producing T cells [3] | further results
1 | EDEDSIINFEKL [SIINFEKL with EDED added at the N-terminus] |  |  | induction of specific IFN-γ-producing T cells in the draining (popliteal) lymph node (local response) [1]: high amount; induction of specific IFN-γ-producing T cells in the spleen (systemic response) [1]: high amount
2 | FIFIFISIINFEKL [SIINFEKL with FIFIFI added at the N-terminus] | about 100 per 1 million spleen cells |  | 
3 | SIINFEKL [ovalbumin derived class I H-2Kb restricted peptide, unmodified wild type, reference compound] |  |  | induction of T cells (general statement) ([2]; alone or in combination with an adjuvant like poly-L-arginine): weak inducer of T cells
4 | FIFISIINFEKL [SIINFEKL with FIFI added at the N-terminus] | about 100 per 1 million spleen cells | high numbers | 
5 | SIINFEKLFIFI [SIINFEKL with FIFI added at the C-terminus] |  | high numbers | 
